{"source": "patent US20250222066A1", "about": "“COMPOSITIONS AND METHODS OF TREATING, PREVENTING OR INHIBITING A FACULTATIVE ANAEROBE INFECTION” (UNIVERSITY OF UTAH RESEARCH FOUNDATION, priority 2022, published 2025)", "key": {"[1]": {"system": "S. aureus ATCC 6538 biofilms", "assay": "CDC biofilm reactor coupons, 24 h antibiotic treatment, bioburden by serial dilution plating", "format": "cell-based", "details": "for anti-biofilm efficacy of hypoxia-activated prodrug compared with antibiotic controls: 1 mM compound with 1 mM nafcillin or 1 mM gentamicin, 24 h", "protocol": "For determining the broad-spectrum utility of metronidazole, respective bacterial species were grown into stationary biofilms using a 2- or 3-day species-specific growth protocol in a CDC biofilm reactor on standard 0.5 in polycarbonate coupons. Each reactor holds up to 24 coupons/samples with adherent biofilms. Bacterial bioburden, represented as colony forming units (CFUs), from five reactor samples/coupons (n=5) were quantified by first dispersing the bacterial biofilms in 2 ml of PBS by standardized vortex-sonication technique and serial-dilution plating. Importantly, this quantification technique provides bioburden data with logarithmic sensitivity. […] The gray shaded regions represent standard deviations.\n(§1) Three groups of 5 coupons/samples (n=5) were placed into 2 ml treatments either containing 0.5-1 mg/ml of gentamicin, metronidazole, or combinations thereof (in CAMHB) and incubated for 24 h at 37° C. Importantly, the total antibiotic concentration (mg/ml) was fixed for each sample to enable assessment of compound synergy.\nAfter the 24 h treatment, the bacteria adhered to coupons were quantified by rinsing the samples very gently in excess PBS followed by vortexing and sonicating to disperse the biofilm in 2 ml PBS and subsequent serial-dilution plating. The bioburden of the adhered bacteria is represented by the blue bars in FIG. 1. […] Broth bioburden is represented by the red bars in FIG. 1.\nTwelve hypoxia activated prodrugs from three categories were tested: nitroimidazoles (same class as metronidazole), nitrofurans, and anti-tumor agents.\nTo test each compound, the contents of an entire CDC-biofilm reactor (24 coupons/biofilm samples) were used (see FIG. 2 and FIG. 3). […] Using the methods described above, 4 reactor samples/coupons served as reactor controls. The remaining 20 samples/coupons were split into 4 treatment groups of 5 samples each (n=5).\nFor testing against S. aureus biofilms, the compounds were prepared at a concentration of 1 mM in CAMHB; coupons were treated in 2 ml for 24 h. Compounds were intentionally prepared in units of molarity rather than the more common weight/volume ratios of clinicians.\nThis choice was made for two reasons.\nTwo of the treatment groups were the same for each test: one in 1 mM nafcillin (a β-lactam antibiotic) and a second in 1 mM gentamicin. […] For comparison for most compounds 1 mM ranges from ˜0.15-0.5 mg/ml, 1 or 2 Log 2 dilutions below tests in FIG. 1. […] The other compounds were tested at the same concentrations.\nQuantification of the post-treatment residual bioburden was performed by dispersing biofilm bacteria into the 2 ml treatments with its constituent bacteria by vortexing, and sonicating. […] The pelleted bacteria were resuspended and measured by the serial dilution plating technique. Thus, the values presented in FIGS. 2, 3 and 4 represent the cumulative change in bioburden from the surface-attached biofilms and bacteria in the treatments."}, "[2]": {"system": "P. aeruginosa ATCC 27853 biofilms", "assay": "CDC biofilm reactor coupons, 24 h antibiotic treatment, bioburden by serial dilution plating", "format": "cell-based", "details": "for anti-biofilm efficacy of hypoxia-activated prodrug compared with antibiotic controls: 1 mM compound with cefepime or 0.1 mM gentamicin, 24 h", "protocol": "Twelve hypoxia activated prodrugs from three categories were tested: nitroimidazoles (same class as metronidazole), nitrofurans, and anti-tumor agents. For the screening, S. aureus ATCC 6538 was used with the best performing compounds subsequently tested against P. aeruginosa ATCC 27853; these pathogens can then be used as inocula for infection development in the animal work.\nTo test each compound, the contents of an entire CDC-biofilm reactor (24 coupons/biofilm samples) were used (see FIG. 2 and FIG. 3). These experiments were designed to have multiple internal controls to enable cross-data comparisons (see FIG. 4). Using the methods described above, 4 reactor samples/coupons served as reactor controls. The remaining 20 samples/coupons were split into 4 treatment groups of 5 samples each (n=5).\nTwo of the treatment groups were the same for each test: one in 1 mM nafcillin (a β-lactam antibiotic) and a second in 1 mM gentamicin. Likewise, the second two treatment groups had either 1 mM nafcillin or 1 mM gentamicin both with the addition of 1 mM of the compound tested. For comparison for most compounds 1 mM ranges from ˜0.15-0.5 mg/ml, 1 or 2 Log 2 dilutions below tests in FIG. 1. For testing of P. aeruginosa biofilms (FIG. 3), the β-lactam cefepime was substituted for nafcillin due to resistance and the gentamicin concentration was reduced from 1 to 0.1 mM because of excessive kill compared with S. aureus biofilms. The other compounds were tested at the same concentrations.\nQuantification of the post-treatment residual bioburden was performed by dispersing biofilm bacteria into the 2 ml treatments with its constituent bacteria by vortexing, and sonicating. The antibiotic was removed from a representative aliquot (1 ml) sample, alternating steps of centrifugally pelleting the bacteria, removing 90% of the solution, replacing 90% of the solution and repeating 2 additional times thereby decreasing the antibiotic in solution below the MIC values. The pelleted bacteria were resuspended and measured by the serial dilution plating technique. Thus, the values presented in FIGS. 2, 3 and 4 represent the cumulative change in bioburden from the surface-attached biofilms and bacteria in the treatments."}, "S. epidermidis": {"system": "S. epidermidis", "assay": "Minimum inhibitory concentration (MIC) assay, planktonic bacteria", "format": "cell-based, Staphylococcus epidermidis", "details": "Staphylococcus epidermidis, for 1:1 combinations MIC is the sum of both compounds", "protocol": "as §1\nFor comparison to these biofilm tests with adjunctive metronidazole, the MIC was determined for each organism and each compound tested."}, "[3]": {"system": "biofilm-contaminated fixation plates", "assay": "Sheep model of biofilm-related orthopedic (musculoskeletal) infection", "format": "in vivo", "protocol": "Use of the Pouch device in a sheep model of biofilm-related orthopedic infection. The Pouch device and two clinical standards of care (IV-vancomycin, and gentamicin-loaded Stimulan® beads) were tested in a sheep model of biofilm-related orthoepic infection. Briefly, the proximal medial aspect of the right tibia is subjected to a blast from an air cannon to simulate traumatic soft tissue damage. In a surgical procedure, the periosteum is stripped, and two biofilm-contaminated fixation plates are situated above osteotomized fractures. At necropsy, one of the fixation plates and the surrounding tissue serve for microbiological analysis whereas the plate and tissues of the second site are used for histological analysis. Four groups of sheep (n=5/group) were used in testing. The first group served as a positive control of infection. The Pouch device was tested in one group. The Pouch device was placed during the surgery and refilled daily for 10 days with 480 mg of gentamicin sulfate, 1 g of vancomycin, and 36 mg of rifampin. Ten days after surgery the Pouch device was removed, and the sheep monitored for an additional 11 days; endpoint was 21 days for the groups. For comparison, clinical standards of care were tested in the remaining two groups: IV vancomycin, and Gentamicin-loaded Stimulan® beads. […]"}}, "note": "Entries after “also recorded” stand apart in the source; their conditions may differ. Like-named read-outs stand apart in the source and are kept apart here."}
{"compound": "Cn1c(COP(=O)(NCCBr)NCCBr)cnc1[N+](=O)[O-]", "note": "[Evofosfamide]", "values": [{"measurement": "anti-biofilm efficacy of hypoxia-activated prodrug compared with antibiotic controls", "setting": "[1]", "value": "significant activity"}, {"measurement": "anti-biofilm efficacy of hypoxia-activated prodrug compared with antibiotic controls", "setting": "[2]", "value": "significant activity"}]}
{"compound": "C[C@H]1COc2c(N3CCN(C)CC3)c(F)cc3c(=O)c(C(=O)O)cn1c23", "note": "[Levofloxacin, levofloxacin]", "values": [{"measurement": "MIC", "setting": "S. epidermidis; aerobic, read-out: Aerobic MIC", "value": 0.125, "unit": "µg/mL"}, {"measurement": "MIC", "setting": "S. epidermidis; anaerobic, read-out: Anaerobic MIC", "value": 0.125, "unit": "µg/mL"}]}
{"compound": "Nc1n[n+]([O-])c2ccccc2[n+]1[O-]", "note": "[Tirapazamine]", "values": [{"measurement": "anti-biofilm efficacy of hypoxia-activated prodrug compared with antibiotic controls", "setting": "[1]", "value": "significant activity"}, {"measurement": "anti-biofilm efficacy of hypoxia-activated prodrug compared with antibiotic controls", "setting": "[2]", "value": "significant activity"}]}
{"compound": "CO/N=C(\\C(=O)N[C@@H]1C(=O)N2C(C(=O)[O-])=C(C[N+]3(C)CCCC3)CS[C@H]12)c1csc(N)n1", "note": "[cefepime]", "values": [{"measurement": "synergy of the companion antibiotic with hypoxia-activated prodrugs", "setting": "[2]; Gram-negative organisms", "value": "least synergistic"}]}
{"compound": "O=C1OC(CN2CCOCC2)CN1/N=C/c1ccc([N+](=O)[O-])o1", "note": "(stereo not drawn) [furaltadone]", "values": [{"measurement": "anti-biofilm efficacy of hypoxia-activated prodrug compared with antibiotic controls", "setting": "[1]", "value": "remarkable efficacy"}, {"measurement": "anti-biofilm efficacy with β-lactam antibiotics", "setting": "[1]; paired with β-lactam (nafcillin; cefepime for P. aeruginosa)", "value": "considerable efficacy"}, {"measurement": "anti-biofilm efficacy of hypoxia-activated prodrug compared with antibiotic controls", "setting": "[2]", "value": "remarkable efficacy"}]}
{"compound": "CCOc1ccc2ccccc2c1C(=O)N[C@@H]1C(=O)N2[C@@H]1SC(C)(C)[C@@H]2C(=O)O", "note": "[nafcillin]", "values": [{"measurement": "synergy of the companion antibiotic with metronidazole against biofilms", "setting": "[1]; 24 h treatment", "value": "did not display synergy nor antagonism; also recorded: least synergistic"}]}
{"compound": "NC(=O)N/N=C/c1ccc([N+](=O)[O-])o1", "note": "[nitrofurazone]", "values": [{"measurement": "anti-biofilm efficacy of hypoxia-activated prodrug compared with antibiotic controls", "setting": "[1]", "value": "showed benchtop anti-biofilm utility"}]}
{"compound": "CN[C@H](CC(C)C)C(=O)N[C@H]1C(=O)N[C@@H](CC(N)=O)C(=O)N[C@H]2C(=O)N[C@H]3C(=O)N[C@H](C(=O)N[C@H](C(=O)O)c4cc(O)cc(O)c4-c4cc3ccc4O)[C@H](O)c3ccc(c(Cl)c3)Oc3cc2cc(c3O[C@@H]2O[C@H](CO)[C@@H](O)[C@H](O)[C@H]2O[C@H]2C[C@](C)(N)[C@H](O)[C@H](C)O2)Oc2ccc(cc2Cl)[C@H]1O", "note": "[vancomycin]", "values": [{"measurement": "bioburden levels compared to the positive control", "setting": "[3]; 21 days", "value": "not statistically significantly different"}, {"measurement": "reduction in bacterial bioburden from the initial inocula", "setting": "[3]; 21 days after inoculation, treatment for 10 days, n=5 sheep/group", "value": 2.5, "unit": "log10 units"}, {"measurement": "eradication of biofilms", "setting": "[1]; concentrations over 60,000 X the MIC, 6,000 X the nephrotoxic and ototoxic thresholds, 25-50 X the cytotoxic limit", "value": "failed to eradicate"}]}
